Experimental data: patent US20220259202A1, “1-(4-(AMINOMETHYL)BENZYL)-2-BUTYL-2H-PYRAZOLO[3,4-C]QUINOLIN-4-AMINE DERIVATIVES AND RELATED COMPOUNDS AS TOLL-LIKE RECEPTOR (TLR) 7/8 AGONISTS, AS WELL AS ANTIBODY DRUG CONJUGATES THEREOF FOR USE IN CANCER THERAPY AND DIAGNOSIS” (SUTRO BIOPHARMA, INC., priority 2019, published 2022)

What was measured:
human PBMCs = assay: Compound-induced immune cell activation (CD86 expression, flow cytometry); format: cell-based; conditions: monocytes, B cells, cDCs and pDCs (FIG. 1A-1D); 48 hr
Source text: This example evaluates the ability of Compound 1 to stimulate the activation of different immune cells populations (monocyte, B cell, and DCs) in human PBMCs (Peripheral blood mononuclear cells), cyno PBMCs and mouse splenocytes. Compound A, above, and resiquimod, below, were used as controls in this assay
Peripheral blood mononuclear cells (PBMCs) were isolated from fresh collected blood from two healthy human donors and two cynomolgus monkey donors using Leukosep tube and Nycoprep 1.077 buffer according to the manufacture's recommendation. Mouse splenocytes were isolated from C57/BL6 mouse spleens by macerating and straining over a 70 μm cell strainer. Isolated PBMCs or splenocytes were then frozen done using frozen medium. On the day of the assay, PBMCs or splenocytes were thawed and cultured in PBMC culture medium (RPMI supplemented with 10% heat-inactivated fetal bovine serum from Hyclone, 1% Penicillin/Streptomycin and 2 mmol/L-glutamax). 300k of PBMC or splenocytes in 50 μL of culture medium were seeded in 96-well cell culture plates. 50 μL of the test articles (formulated at 2× of starting concentration, 1:4 serial dilution) were then added into the well. The cell mixtures were co-cultured in the presence of test articles and 10 pg/mL LPS-RS for 48 hr and collected by Accutase. […] Cells were washed, fixed with 2% PFA overnight, and read on the Attune NxT cytometer (Thermo Fisher). […]

cyno PBMCs = assay: Compound-induced cytokine release (ELISA); format: cell-based, cynomolgus monkey; conditions: IL-6 and MCP-1 (FIG. 5A-5B); 48 hr
Experimental: This example evaluates the ability of Compound 1 to induce cytokine release in human PBMCs, cyno PBMCs and mouse splenocytes. Compound A and resiquimod, above, were used as controls in the assays.
Human and cyno PBMCs, mouse splenocytes were isolated as described in previous example. On the day of the assay, 300k of PBMC or splenocytes in 50 μL of culture medium were seeded in 96-well cell culture plates. 50 μL of the test articles (formulated at 2× of starting concentration) were then added into the well. The cell mixtures were co-cultured in the presence of test articles and 10 μg/mL LPS-RS for 24 hrs (human PBMCs) or 48 hr (cyno PBMCs and mouse splenocytes). Released cytokines in cell culture medium were measured by ELISA.

KB cells = assay: In vitro cytotoxicity, cell proliferation assay (Cell Titer-Glo); format: cell-based; conditions: concentration up to 1 μM, 120 hrs
Experimental: The cytotoxicity of Compound 1 was tested in a cell proliferation assay on KB cells. KB cells were obtained from ATCC and were maintained in Ham's F-12: high glucose DMEM (50:50) (Corning) supplemented with 10% heat-inactivated fetal bovine serum (Corning), 1% Penicillin/Streptomycin (Corning) and 2 mmol/L-glutamax (Thermo Fisher Scientific). One day before the assay, KB cells were harvested with Accutase and a total of 625 cells were seeded in each well of a 384-well flat bottom white polystyrene plate. Compound 1 was formulated at 2-fold starting concentration in the cell culture medium. Serial dilutions of Compound 1 (1:4 serial dilution starting from 1000 nM) was added into treatment wells. Assay plates were cultured at 37° C. in a CO2 incubator for 120 hrs before assay. For cell viability measurement, 30 μL of Cell Titer-Glo® reagent (Promega Corp. Madison, Wis.) was added into each well, and plates were processed as per product instructions. Relative luminescence was measured on an ENVISION® plate reader (Perkin-Elmer; Waltham, Mass.). Relative luminescence readings were converted to percent viability using untreated cells as controls. Data was fitted with non-linear regression analysis, using a log(inhibitor) vs. response-variable slope, 4-parameter fit with GraphPad Prism (GraphPad v 5.0, Software; San Diego, California).

## CCCCn1nc2c(N)nc3ccccc3c2c1Cc1ccc(CN)cc1 [Compound 1, 1-(4-(aminomethyl)benzyl)-2-butyl-2H-pyrazolo[3,4-c]quinolin-4-amine]
Human PBMCs
  activation of immune cells in human PBMCs: very potent in activating
Cyno PBMCs
  cytokine release from cyno PBMCs: stimulated strong
KB cells
  cytotoxicity on KB cells: did not show any cytotoxicity
